From patent US9980937B2, “Therapeutic agent for Alzheimer's disease” (NAGASAKI UNIVERSITY, priority 2014, dated 2018)

Key:
neprilysin [1] = experiment: neprilysin activity staining of primary culture nerve cells; format: cell-based; conditions: mouse primary culture nerve cells, 48 hr; Minocycline 5 μM, Somatostatin and Harmine 1 μM, others 10 μM (FIG. 4C)
Description: This is a method of measuring the amount of neprilysin localized on the cell membrane surface by using cultured cells. Since Aβ is secreted extracellularly, the more neprilysin is present on the cell membrane, the more efficiently Aβ can be degraded and removed. The following procedure was performed according to a previous report (JP-A-2004-151079; Saito T., Iwata N., et al., Nat. Med. 11(4), 434-439, 2005).
Nerve cells prepared from mouse embryocerebral cortex and hippocampus were cultured and fixed, and reacted with a substrate. After completion of the reaction, aminopeptidase-phosphoramidon mixture and nitrosalicylaldehyde solution were sequentially added and reacted. For the cells after completion of the reaction, positively stained images were observed using a filter for argon laser and rhodamine under a confocal laser microscope. More conveniently, it is also possible to observe positively stained images by using a FITC filter under a fluorescence microscope. When the substrate is degraded by neprilysin, an insoluble fluorescence reaction product is formed, and the site where neprilysin is present is visualized in yellow (pseudocolor and could be green). When the cells are stained by this method, the copresence of thiorphan, which is a specific inhibitor of neprilysin, causes disappearance of the positively stained images, and therefore, the presence of neprilysin on the cell surface of primary culture nerve cells of mouse embryocerebral cortex and hippocampus can be confirmed.
The nerve cells prepared from mouse embryocerebral cortex and hippocampus were cultured, the following test compounds were individually added at a given concentration from day 7 to day 21 of culture, and further cultured for 48 hr. After completion of the culture, the neprilysin activity of the mouse primary culture nerve cells was visualized and observed by the method shown in the above-mentioned 1. The stained images were quantified by an image analysis software (MetaMorph, ver. 7.7 (Universal Imaging Corporation, Downington, Pa.)) and studied. […]

neprilysin [2] = experiment: neprilysin-dependent neutral endopeptidase activity of APP-H4 cell extract (suc-AAF-AMC coupled enzyme assay); format: cell-based, human; conditions: APP-H4 cells, 48 hr, 1 or 10 μM; activity without polyphenol derivative = 1 (FIG. 1)
Description: (§1) APP-H4 cells were seeded to a 6-well plate at a density of 12×10^4 cells/1.5 mL, and cultured in Dulbecco's modified Eagle's medium (DMEM; Nacalai Tesque, Inc.) added with 10% fetal bovine serum (FBS; Equitech-Bio, Inc. [Kerrville, Tex., USA]), 100 U/mL penicillin+100 μg/mL streptomycin (Nacalai Tesque, Inc.). After culture for 24 hr, the culture supernatant was removed, and the medium was exchanged with a medium with reduced use amount of serum, Opti-MEM (registered trade mark) I Reduced Serum Medium (Life Technologies Corporation, Carlsbad, Calif., USA) (1 mL). A polyphenol derivative (1 μL) to be the test target was added, and the mixture was further cultured for 48 hr. After culture, the culture supernatant was recovered in a tube (total amount 1.5 mL), centrifuged at 4,000×g/4° C./10 min to remove dead cells, and the supernatant (800 μL) was placed in a new tube. The culture supernatant was preserved at −80° C. before sample preparation. The cells were washed twice with ice-cooled phosphate-buffered saline (PBS). Thereafter, the cells were scraped from the plate using a Cell Scraper. The cells were recovered in a 1.5 mL tube and centrifuged at 4,000×g/4° C./10 min. The supernatant was removed and the cells were preserved at −80° C. before sample preparation. The frozen cells were lysed in 40 μL of solubilization buffer containing 1% Triton X-100, protease inhibitor cocktail Complete™ EDTA-free (Roche) and 50 mM Tris-HCl on ice. The cell lysate was incubated on ice for 60 min, centrifuged at 4° C., 21,900×g for 30 min, and the supernatant was recovered and used as a solubilization cell extract.
The total protein concentration of the cell extract was determined by a BCA protein assay kit (Takara) by using BSA as the standard solution. The final concentration of the test compound used was 1 μM or 10 μM, and quantification was performed using each solvent as a control.
The neprilysin-dependent neutral endopeptidase activity of the cell extract was measured fluorescence quantitatively by an indirect coupled enzyme assay method. […] Total 50 μL of the reaction mixture was prepared such that the final concentration was substrate 0.1 mM suc-AAF-AMC, protein in the cell extract 1-6 μg, 100 mM MES buffer (pH 6.5). With the time of addition of the substrate as the start of the reaction, the mixture was reacted at 37° C. for 1 hr, and Phe-AMC was cut out from the substrate by neutral endopeptidase. […] The mixture was reacted at 37° C. for 30 min, and Phe (phenylalanine) residue was cut out from Phe-AMC by aminopeptidase.

neprilysin [3] = experiment: neprilysin expression amount at protein level (western blot, APP-H4 cells); format: cell-based, human; conditions: 48 hr, standardized to β-actin (FIG. 2)
Description: as §1
The aforementioned cell extract was mixed with 6×SDS-polyacrylamide gel electrophoresis (SDS-PAGE) sample buffer (Nacalai Tesque, Inc.) at a ratio of 5:1, boiled for 5 min, and used as a detection sample of neprilysin, α-secretase and β-secretase proteins.
The PVDF membrane after transfer was washed with a wash buffer and immersed in a blocking buffer to prevent non-specific binding of the primary antibody, and a blocking reaction was performed at room temperature for 1 hr. […] The PVDF membrane after the reaction was washed with the wash buffer and the secondary antibody (horseradish peroxidase conjugated anti-mouse or anti-rabbit IgG (1:10,000; GE Healthcare UK Ltd.)) corresponding to the primary antibody was reacted at room temperature for 1 hr and detection was carried out using the ECL Select Western Blotting Detection Kit (GE Healthcare UK Ltd.).
The signal intensity of the band was quantified using a densitometer LAS-4000 (GE Healthcare UK Ltd.) and image analysis software Science Laboratory 2003 Image Gauge Version 4.23 (Fujifilm Holdings Corporation, Tokyo, Japan).

[4] = coefficient of partition for octanol, in accordance with Fudouji et al. 2009; cited from earlier work
[5] = system: neprilysin, α-secretase, β-secretase; experiment: overall conclusion on modulation of neprilysin, α-secretase and β-secretase (Example 1); format: cell-based, human; conditions: conclusion from the results of Example 1
Description: as §1
The neprilysin-dependent neutral endopeptidase activity of the cell extract was measured fluorescence quantitatively by an indirect coupled enzyme assay method. As a neutral endopeptidase substrate, succinyl-Ala-Ala-Phe-7-amino-4-methylcoumarin (suc-AAF-AMC) (1-1315; Bachem) was used. Total 50 μL of the reaction mixture was prepared such that the final concentration was substrate 0.1 mM suc-AAF-AMC, protein in the cell extract 1-6 μg, 100 mM MES buffer (pH 6.5). With the time of addition of the substrate as the start of the reaction, the mixture was reacted at 37° C. for 1 hr, and Phe-AMC was cut out from the substrate by neutral endopeptidase. Then, to the reaction mixture was added a solution (2.5 μL) containing 0.1 mg (0.4 unit equivalent)/mL leucine aminopeptidase (L-5006; Sigma-Aldrich), and 0.2 mM phosphoramidon (4082; Peptide Institute). The mixture was reacted at 37° C. for 30 min, and Phe (phenylalanine) residue was cut out from Phe-AMC by aminopeptidase. Using microplate spectrometer Infinite M-1000 (Tecan), the fluorescence intensity of free AMC was measured by measuring at an excitation wavelength 390 nm and a fluorescence wavelength 460 nm on a half-well size 96-well black plate (#3695; Corning). The neprilysin-dependent neutral endopeptidase activity was determined based on a decrease in the activity due to 10 μM thiorphan (T-6031; Sigma-Aldrich) as a neprilysin specific inhibitor.
After thawing from −80° C., the aforementioned culture supernatant was mixed with 6×SDS-polyacrylamide gel electrophoresis (SDS-PAGE) sample buffer (Nacalai Tesque, Inc.) at a ratio of 5:1, boiled for 5 min, and used as a detection sample of APPsα which is a metabolite of APP by α-secretase and APPsβ which is a metabolite of APP by β-secretase in western blot analysis. […]

ADAM17 = experiment: α-secretase mRNA expression, ADAM17 (real-time PCR); format: cell-based, human; conditions: control = 1
Description: In the same manner as in the above-mentioned 2, total RNA was prepared using a High Pure RNA Isolation kit (Roche 11828665001) from the cells to be the test target cells, which were treated with each polyphenol derivative and cultured, and subjected to a reverse transcription reaction using PrimeScript RT-PCR kit (TaKaRaRR014A) to give a sample (cDNA) for real-time PCR.
The prepared sample, Premix Ex taq (Perfect Real Time) (TaKaRaRR039A) and a probe, and a primer were mixed in a tube (TaKaRa SC910A), and real-time PCR reaction (initial denaturation: 95° C. 30 sec, PCR reaction: 95° C. 5 sec, 60° C. 20 sec, 40 times) was performed by Smart Cycler II System machine (TaKaRa).
The 5′-terminus of the probe was modified by a fluorescent substance FAM, and the 3′-terminus was modified by a quencher substance TAMRA, respectively.

α-secretase = α-secretase activity (APPsα, western blot); format: cell-based, human; conditions: APP-H4 culture supernatant, APPsα (FIG. 2)
Description: as §1, with “The cells were recovered in a 1.5 mL tube and centrifuged at 4,000×g/4° C./10 min. The supernatant was removed and the cells were preserved at −80° C. before sample preparation. The frozen cells were lysed in 40 μL of solubilization buffer containing 1% Triton X-100, protease inhibitor cocktail Complete™ EDTA-free (Roche) and 50 mM Tris-HCl on ice. The cell lysate was incubated on ice for 60 min, centrifuged at 4° C., 21,900×g for 30 min, and the supernatant was recovered and used as a solubilization cell extract.” left out
(§2) The signal intensity of the band was quantified using a densitometer LAS-4000 (GE Healthcare UK Ltd.) and image analysis software Science Laboratory 2003 Image Gauge Version 4.23 (Fujifilm Holdings Corporation, Tokyo, Japan). […]

APP = experiment: extracellularly secreted APPsα/APPsβ ratio (western blot); format: cell-based, human; conditions: APP-H4 culture supernatant (FIG. 2)
Description: as §1
After thawing from −80° C., the aforementioned culture supernatant was mixed with 6×SDS-polyacrylamide gel electrophoresis (SDS-PAGE) sample buffer (Nacalai Tesque, Inc.) at a ratio of 5:1, boiled for 5 min, and used as a detection sample of APPsα which is a metabolite of APP by α-secretase and APPsβ which is a metabolite of APP by β-secretase in western blot analysis.
The PVDF membrane after transfer was washed with a wash buffer and immersed in a blocking buffer to prevent non-specific binding of the primary antibody, and a blocking reaction was performed at room temperature for 1 hr. Thereafter, it was reacted with a primary antibody (APPsα, anti-human APPsα mouse monoclonal antibody (2B3, Immuno-Biological Laboratories Co., Ltd., Gunma, Japan) (3 μg/mL); APPsβ, anti-APPsβ, rabbit polyclonal antibody, 1 μg/mL) to perform an antigen-antibody-reaction at 4° C. for not less than 16 hr. […]
as §2

β-secretase = target: T1, β-secretase (Homo sapiens, UniProt P56817); experiment: β-secretase activity (APPsβ, western blot); format: cell-based; conditions: APP-H4 culture supernatant, APPsβ (FIG. 2)
T1 construct: endogenous in cells; host or cells: APP-H4 cells (culture supernatant analysed)
Description: as §1, with “extract. […]” for “extract.”
as §2

T1 sequence (P56817 46-501): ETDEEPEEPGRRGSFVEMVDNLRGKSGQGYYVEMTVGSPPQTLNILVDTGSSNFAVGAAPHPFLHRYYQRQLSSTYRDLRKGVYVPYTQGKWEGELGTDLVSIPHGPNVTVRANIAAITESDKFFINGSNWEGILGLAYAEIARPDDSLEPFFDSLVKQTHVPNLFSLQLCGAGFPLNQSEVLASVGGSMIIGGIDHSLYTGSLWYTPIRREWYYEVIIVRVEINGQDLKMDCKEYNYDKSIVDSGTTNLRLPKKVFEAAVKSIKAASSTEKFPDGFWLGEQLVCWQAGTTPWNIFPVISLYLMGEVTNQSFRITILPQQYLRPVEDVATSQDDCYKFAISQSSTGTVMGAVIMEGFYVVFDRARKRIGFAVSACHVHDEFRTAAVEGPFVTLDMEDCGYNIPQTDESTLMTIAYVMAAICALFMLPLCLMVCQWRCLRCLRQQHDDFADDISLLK

modulator class (neprilysin / α-secretase / β-secretase) [5] | β-secretase activity, remaining relative to control (β-secretase) | SMILES | neprilysin activity potentiating action (activity staining) (neprilysin [1]) | neprilysin activity potentiating action (neprilysin [2]) | expression amount of neprilysin at the protein level (neprilysin [3]) | log P octanol [4] | ADAM17 expression at the mRNA level (ADAM17) | α-secretase activity (α-secretase) | extracellularly secreted APPsα/APPsβ ratio (APP)
– | – | COc1ccc2c(c1)[nH]c1c(C)nccc12 [Harmine] | neprilysin activity potentiating action | – | – | – | – | – | –
– | – | Oc1ccc(/C=C/c2cc(O)cc(O)c2)cc1 [Resveratrol] | neprilysin activity potentiating action | about 1.4 times that of control | – | – | – | – | –
double modulator | – | CC(C)=CCC/C(C)=C/Cc1c(O)cc(O)c2c1O[C@H](c1cc(O)c(O)c(O)c1)[C@H](OC(=O)c1cc(O)c(O)c(O)c1)C2 [NUP-16] | – | about 1.8 times that of control | about 1.8 times that of control | 2.55 | about 1.2 times that of control | about 1.7 times that of control | about 1.6 times that of control
– | – | CN(C)CCCN1c2ccccc2Sc2ccc(Cl)cc21 [Chlorpromazine] | neprilysin activity potentiating action | – | – | – | – | – | –
triple modulator | about 43 % that of control | C/C(=C\Cc1c(C(=O)O[C@@H]2Cc3c(O)cc(O)cc3O[C@@H]2c2cc(O)c(O)c(O)c2)cc(O)c(O)c1O)CCCC(C)CCCC(C)CCCC(C)C (some centres unmarked) [NUP-18] | – | about 3.8 times that of control | about 3.8 times that of control | – | – | about 1.2 times that of control | about 2.1 times that of control
